Results published in patent publication US20240262817A1, “QUINAZOLINE DERIVATIVES TARGETING R(CCUG) REPEATS IN MYOTONIC DYSTROPHY TYPE 2” (University of Florida Research Foundation, Incorporated, priority 2021, published 2024).
Blank lines part the entries; values can stand above or below the compound they belong to.

How the values were obtained:
[1] = tested on: IR exon 11 alternative splicing in DM2 patient-derived fibroblasts; test: Rescue of IR exon 11 splicing via RT-PCR in DM2 fibroblasts; type: cell-based
Description: (§1) Cell lines and cell culture: Compounds were tested in two cell lines: (i) DM2 patient-derived fibroblasts (generous gift from University of Florida, Center for NeuroGenetics) and (ii) fibroblasts from a healthy donor (wild-type; WT GM07492; Coriell Institute). Cells were maintained at 37° ° C. with 5% CO2. DM2 fibroblasts were cultured in DMEM/high glucose (HyClone) supplemented with 20% FBS (Sigma) and 1% Antibiotic-Antimycotic solution (Corning). Wild-type fibroblasts were cultured in MEM (Corning) supplemented with 10% FBS, 1% Glutagro (Corning), and 1% Antibiotic-Antimycotic solution.
Evaluation of pre-mRNA splicing via RT-PCR: Pre-mRNA splicing was analyzed as previously described.^10 Briefly, cells were grown in 6-well plates and treated with the desired compound in growth medium at ˜40% confluency. After 48 h, the cells were lysed, and total RNA was harvested using a Zymo Quick RNA Miniprep Kit. Approximately 1 μg of total RNA was reverse transcribed using a qScript cDNA synthesis kit (20 μL of total reaction volume, Quanta BioSciences); 2 μL of the RT reaction was used for PCR using GoTaq DNA polymerase (Promega). RT-PCR products were observed after 35 cycles of 95° C. for 30 s, 58° C. for 30s, 72 °C for 1 min, and a final extension at 72° C. for 5 min. Products were separated on a 2% agarose gel (110 V for 1 h in 13TBE buffer), visualized by staining with ethidium bromide, and imaged using a Typhoon 9410 variable mode imager. Gels were quantified using ImageJ. Percent rescue was calculated by dividing the difference between treated and untreated DM2 samples by the difference between untreated DM2 and WT samples (Equation 2).

[2] = tested on: r(CCUG)12-MBNL1 complex; test: TR-FRET assay, disruption of pre-formed r(CCUG)12-MBNL1 complex; type: biochemical; details: in vitro, read-out: IC50 for disrupting an r(CCUG)12-MBNL1 complex
From the text: Of the 44 hits, 38 contained a similar substituted N2-phenylquinazoline-2,4-diamine core, while the other hits contained benzimidazoles and indazoles (Figure S2). Importantly, these 44 compounds are drug-like as they have similar physicochemical properties to the rest of the library and to known-drugs in Drug Bank (FIG. 2A). On average, the 44 hit compounds have a molecular weight of 327±35 g/mol, a cLogP of 3.2±0.9. TPSA of 76±15 Å, and 2.5±0.9 hydrogen bond donors. The in vitro potencies (IC50s) of the 44 compounds were then measured in the TR-FRET assay, affording seven compounds (1-7) with IC50s <50 μM (highlighted in red in FIGS. 2B & 2C).
In vitro IC50 measurements: IC50 measurements for disruption of r(CCUG)12-MBNL1 complex was completed using a previously reported TR-FRET assay with minor modifications.^23, 24 Briefly, 5′-biotinylated r(CCUG)12 (SEQ ID NO: 15) was folded in 1× Folding Buffer (20 mM HEPES, pH 7.5, 110 mM KCl, and 10 mM NaCl) at 60° C. for 5 min then cooled to room temperature. The buffer was adjusted to 1× Assay Buffer (20 mM HEPES, pH 7.5, 110 mM KCl, 10 mM NaCl, 2 mM MgCl2, 2 mM CaCl2), 5 mM DTT. 0.1% BSA, and 0.5% Tween-20).
Next, MBNL1-His6 was added, and the samples were incubated at room temperature for 15 min. […] The samples were incubated for 30 min at room temperature and added to a white 384-well plate, where TR-FRET was measured on a Molecular Devices SpectraMax M5 plate reader using an excitation wavelength of 345-nm and a 420-nm cutoff. The ratios of fluorescence intensity at 545 and 665 nm were calculated, and ratios in the absence of a compound and in the absence of RNA were used to calculate percent disruption. […]
[formula] • where y is ratio of fluorescence intensities at 545 nm and 665 nm (F545/F665), x is the concentration of a compound, B is F545/F665 value at max FRET effect (solution has RNA and protein but no compound added); A is F545/F665 value at min FRET effect (solution has antibodies but no RNA, protein, or compound); and the IC50 is the concentration of a compound where half of the protein is displaced by a compound.

[3] = tested on: r(GACAGCCUGCUGUC)2 duplex, RNA containing a single 2×2 CU/UC internal loop; test: NMR spectroscopy (WaterLOGSY, 1D) of binding to RNA with one 2×2 CU/UC internal loop
From the text: The binding 1-7 an RNA containing a single 2×2 CU/UC was further studied by NMR spectroscopy. […] Aromatic protons of the unbound RNA were assigned via a 2D NOESY spectrum (Figure S7).
NMR samples preparation: A self-complementary RNA construct, r(5′-GACAGCCUGCUGUC-3′), SEQ ID NO:12, was purchased from GE Healthcare Dharmacon, Inc., deprotected according to the manufacturer's recommended protocol, and desalted with PD-10 columns (GE Healthcare, cat: 17-0851-01) also per the manufacturer's protocol. RNA samples were dissolved in NMR Buffer [10 mM KH2PO4/K2HPO4 and 0.05 mM EDTA (pH 6.0)] and folded by heating to 95° C. for 3 min and slowly cooling to room temperature.
NMR spectroscopy: NMR spectra were acquired at 25° C. on Bruker Avance III 600 and 700 MHZ spectrometers equipped with cryoprobes. 1D NMR spectra were acquired on samples containing 100 μM of RNA alone in 100% D20. Compounds 38, 40, 41, and 42 were each titrated into separate samples at 0.5, 1.0, 1.5, and 2.0 compound: RNA molar ratios. WaterLOGSY (water-ligand observed via gradient spectroscopy) spectra^29 were acquired on samples containing 300 μM of each compound alone or in the presence of 15 μM of RNA at a 20:1 compound:RNA ratio in H2O, to which D2O was added to 5% by volume. WaterLOGSY spectra were phased to give negative NOEs for non-binders. […]

[4] = tested on: DM2 patient-derived fibroblasts; test: Cell viability by CellTiter-Glo; type: cell-based; details: for toxicity in DM2 patient-derived fibroblasts: at 5 μM; for toxicity as stated in legend of FIG. 3C: DM2 fibroblasts
Description: as §1
Evaluation of cell viability: Compound toxicity in DM2 fibroblasts was evaluated using a CellTiter-Glo Kit (Promega) as described in the manufacturer's protocol. Briefly, after 48 h treatment in 96-wells plates, 100 μL of the CellTiter-Glo reagent was added to each well. The plate was then incubated at room temperature for 10 min, and luminescence was measured using BioTek FLX-800 luminescence plate reader (n=6 replicates; 1 independent experiment).

IC50 [2]: 48.2 ± 0.07 µM
shifts of RNA H6 and H8 proton resonances in 1D NMR, indicating binding ([3]; compound added to RNA with one 2×2 CU/UC internal loop): Significant shifts in resonances
binding to the RNA by waterLOGSY spectra ([3]; positive phase signals in the presence of RNA): bound to the RNA
Structure (SMILES): OCCCNc1nc(Nc2ccc3c(c2)OCCO3)nc2ccccc12 [Compound 7, 3-((2-((2,3-dihydrobenzo[b][1,4]dioxin-6-yl)amino)quinazolin-4-yl)amino)propan-1-ol]
rescue of IR splicing ([1]; at 1 μM dose, p=0.026): 12±5
rescue of IR exon 11 splicing ([1]; at 5 μM): ~50%

IC50 [2]: 12.7 ± 0.2 µM
Structure (SMILES): Cc1ccc2nc(Nc3ccc4c(c3)OCCO4)nc(NCCCO)c2c1 [Compound 58, 3-((2-((2,3-dihydrobenzo[b][1,4]dioxin-6-yl)amino)-6-methylquinazolin-4-yl)amino)propan-1-ol]

Structure (SMILES): Cc1ccc2nc(Nc3ccc4nc(NC5CCN(Cc6ccccc6)CC5)sc4c3)nc(NCCCO)c2c1 [Compound 71, 3-((2-((2-((1-benzylpiperidin-4-yl)amino)benzo[d]thiazol-6-yl)amino)-6-methylquinazolin-4-yl)amino)propan-1-ol]
toxicity in DM2 patient-derived fibroblasts [4]: significant toxicity

Structure (SMILES): Cc1ccc2nc(Nc3ccc4nc(N5CCOCC5)sc4c3)nc(NCCCO)c2c1 [Compound 72, 3-((6-methyl-2-((2-morpholinobenzo[d]thiazol-6-yl)amino)quinazolin-4-yl)amino)propan-1-ol]
toxicity in DM2 patient-derived fibroblasts [4]: significant toxicity

Structure (SMILES): Cc1ccc2nc(Nc3ccc4nc(NCC(C)C)sc4c3)nc(NCCCO)c2c1 [Compound 73, 3-((2-((2-(isobutylamino)benzo[d]thiazol-6-yl)amino)-6-methylquinazolin-4-yl)amino)propan-1-ol]
toxicity in DM2 patient-derived fibroblasts [4]: significant toxicity

Structure (SMILES): Cc1ccc2nc(Nc3ccc4nc(NCCN5CCOCC5)sc4c3)nc(NCCCO)c2c1 [Compound 74, 3-((6-methyl-2-((2-((2-morpholinoethyl)amino)benzo[d]thiazol-6-yl)amino)quinazolin-4-yl)amino)propan-1-ol]
toxicity in DM2 patient-derived fibroblasts [4]: significant toxicity

Structure (SMILES): Cc1ccc2nc(Nc3ccc4nc(NCC(C)(C)O)sc4c3)nc(NCCCO)c2c1 [Compound 78, 3-((2-((2-((2-hydroxy-2-methylpropyl)amino)benzo[d]thiazol-6-yl)amino)-6-methylquinazolin-4-yl)amino)propan-1-ol]
improvement of IR splicing ([1]; at 5 μM): significantly improved IR splicing
toxicity in DM2 patient-derived fibroblasts [4]: no toxicity

Structure (SMILES): Cc1ccc2nc(Nc3ccc4nc(NCCN(C)C)sc4c3)nc(NCCCO)c2c1 [Compound 79, 3-((2-((2-((2-(dimethylamino)ethyl)amino)benzo[d]thiazol-6-yl)amino)-6-methylquinazolin-4-yl)amino)propan-1-ol]
rescue of IR splicing ([1]; any concentration studied): did not significantly rescue splicing
toxicity as stated in legend of FIG. 3C [4]: non-toxic
toxicity in DM2 patient-derived fibroblasts [4]: no toxicity

Structure (SMILES): Cc1ccc2nc(Nc3ccc4nc(N(CCO)CCO)sc4c3)nc(NCCCO)c2c1 [Compound 80, 2,2′-((6-((4-((3-hydroxypropyl)amino)-6-methylquinazolin-2-yl)amino)benzo[d]thiazol-2-yl)azanediyl)bis(ethan-1-ol)]
toxicity as stated in legend of FIG. 3C [4]: non-toxic

Structure (SMILES): Cc1ccc2nc(Nc3ccc4nc(N5CCN(C)CC5)sc4c3)nc(NCCCO)c2c1 [Compound 82, 3-((6-methyl-2-((2-(4-methylpiperazin-1-yl)benzo[d]thiazol-6-yl)amino)quinazolin-4-yl)amino)propan-1-ol]
toxicity in DM2 patient-derived fibroblasts [4]: significant toxicity
